From patent US8791132B2, “Compounds and methods for treatment of hypertension” (Medivation Technologies, Inc., priority 2011, dated 2014) come the findings set out here.

Assay [1] has as its target T1, human recombinant adrenergic α2B receptor (Homo sapiens, UniProt P18089).
T1 construct: expressed in transfected cells; host or cells: CHO-K1
T1 sequence (P18089 1-450): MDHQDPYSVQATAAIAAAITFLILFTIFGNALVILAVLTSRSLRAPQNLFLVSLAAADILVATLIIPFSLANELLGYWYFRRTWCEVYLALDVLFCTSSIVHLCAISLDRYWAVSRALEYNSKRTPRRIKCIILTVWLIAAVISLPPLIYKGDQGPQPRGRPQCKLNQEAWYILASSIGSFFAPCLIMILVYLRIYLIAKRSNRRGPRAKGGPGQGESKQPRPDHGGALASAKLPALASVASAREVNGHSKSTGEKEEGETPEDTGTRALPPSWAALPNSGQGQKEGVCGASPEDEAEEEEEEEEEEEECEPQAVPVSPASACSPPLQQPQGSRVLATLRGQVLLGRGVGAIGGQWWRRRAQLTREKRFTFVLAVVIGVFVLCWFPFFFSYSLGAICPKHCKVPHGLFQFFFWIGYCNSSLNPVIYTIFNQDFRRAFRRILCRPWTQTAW
As to the kind of experiment: Radioligand binding, adrenergic α2B ([3H]Rauwolscine). The settings on record: [3H]Rauwolscine, repeat datapoints each shown; for Percentage inhibition of ligand binding, Adrenergic α2B (0.03 μM): compound at 0.03 μM. The method in brief: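 Assay used CHO-K1-expressed human α2B receptor in Tris-HCl pH 7.4 buffer with MgCl2, EDTA and BSA; 60 min incubation at 25 °C.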

Assay [2] deals with T2, human recombinant adrenergic α2A receptor (Homo sapiens, UniProt P08913).
T2 construct: expressed in transfected cells; host or cells: insect Sf9 cells
T2 sequence (P08913 1-465): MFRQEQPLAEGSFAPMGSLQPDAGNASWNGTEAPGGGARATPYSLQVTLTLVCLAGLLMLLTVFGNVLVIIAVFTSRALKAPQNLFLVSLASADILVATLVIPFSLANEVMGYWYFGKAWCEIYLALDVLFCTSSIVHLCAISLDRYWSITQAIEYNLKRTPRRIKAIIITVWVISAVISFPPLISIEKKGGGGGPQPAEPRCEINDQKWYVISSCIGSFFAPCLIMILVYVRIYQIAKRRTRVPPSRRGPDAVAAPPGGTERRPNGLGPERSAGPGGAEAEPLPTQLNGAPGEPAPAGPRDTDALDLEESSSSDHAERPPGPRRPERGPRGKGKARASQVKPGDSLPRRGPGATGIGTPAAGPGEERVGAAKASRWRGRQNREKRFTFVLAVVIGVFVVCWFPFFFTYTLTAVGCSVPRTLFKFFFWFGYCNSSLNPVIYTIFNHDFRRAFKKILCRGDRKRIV
As to the kind of experiment: Radioligand binding, adrenergic α2A ([3H]MK-912). As to conditions: [3H]MK-912, repeat datapoints each shown; for Percentage inhibition of ligand binding, Adrenergic α2A (0.1 μM): compound at 0.1 μM. The method, boiled down: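 Sf9 membranes, 1 nM [3H]MK-912, 60 min, 25 °C, Tris-HCl pH 7.4/MgCl2/EDTA buffer. NSB: 10 μM WB-4101. Filtration, counting; % inhibition of specific binding.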

The target of assay [3] is T3, rat adrenergic α1B receptor (Rattus norvegicus, UniProt P15823).
T3 construct: rat adrenergic α1B receptor obtained from Wistar Rat liver; from tissue; host or cells: Wistar rat liver
T3 sequence (P15823 1-515): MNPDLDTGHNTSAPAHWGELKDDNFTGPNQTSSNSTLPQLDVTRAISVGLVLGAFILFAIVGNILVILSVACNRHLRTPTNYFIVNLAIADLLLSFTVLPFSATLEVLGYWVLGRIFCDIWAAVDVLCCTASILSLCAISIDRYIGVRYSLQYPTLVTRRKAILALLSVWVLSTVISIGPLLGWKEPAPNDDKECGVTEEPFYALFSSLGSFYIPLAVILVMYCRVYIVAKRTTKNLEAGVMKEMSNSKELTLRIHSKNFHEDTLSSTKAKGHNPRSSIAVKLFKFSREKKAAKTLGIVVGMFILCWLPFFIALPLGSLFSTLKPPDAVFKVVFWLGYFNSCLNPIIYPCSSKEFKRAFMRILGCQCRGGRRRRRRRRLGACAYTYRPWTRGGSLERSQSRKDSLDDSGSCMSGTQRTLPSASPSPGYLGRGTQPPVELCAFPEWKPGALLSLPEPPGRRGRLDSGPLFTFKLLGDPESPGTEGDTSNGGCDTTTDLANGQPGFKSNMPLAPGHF
Briefly: Radioligand binding, adrenergic α1B ([3H]Prazosin). The settings on record: [3H]Prazosin, repeat datapoints each shown; for Percentage inhibition of ligand binding, Adrenergic α1B (0.1 μM): compound at 0.1 μM. The method, boiled down:
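Rat α1B receptor from Wistar rat liver was incubated with 0.25 nM [3H]prazosin for 60 min at 25 °C in 50 mM Tris-HCl, pH 7.4, 0.5 mM EDTA. Non-specific binding was defined with 10 μM phentolamine. Bound radioligand was measured by filtration and counting, reported as percent inhibition of specific binding.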

As for `Cc1ccc2c(c1)c1c(n2CC(C)(O)c2ccc(C(N)=O)nc2)CCN(C)C1` (single isomer, unassigned) [II-136a, 5-(1-(1,2,3,4-tetrahydro-2,8-dimethylpyrido[4,3-b]indol-5-yl)-2-hydroxypropan-2-yl)pyridine-2-carboxamide], in assay [1] (read-out: Percentage inhibition of ligand binding, Adrenergic α2B (0.03 μM), compound at 0.03 μM), the inhibition – broadly, the change of the read-out against control, counted positive when it falls – at 0.03 µM was 36%. The inhibition at 0.1 µM in assay [2] (read-out: Percentage inhibition of ligand binding, Adrenergic α2A (0.1 μM), compound at 0.1 μM) came to 7%. For the same compound, in assay [3], the “Percentage inhibition of ligand binding, Adrenergic α1B (0.1 μM)” value was found to be 60%.

On to `Cc1ccc2c(c1)c1c(n2CC(C)(O)c2ccc(C(N)=O)nc2)CCN(C)C1` (single isomer, unassigned) [II-136b, 5-(1-(1,2,3,4-tetrahydro-2,8-dimethylpyrido[4,3-b]indol-5-yl)-2-hydroxypropan-2-yl)pyridine-2-carboxamide], for which the “Percentage inhibition of ligand binding, Adrenergic α2B (0.03 μM)” value (shortened to “Percentage inhibition … (0.03 μM)”) in assay [1] was 32%. Also, in assay [2], the “Percentage inhibition of ligand binding, Adrenergic α2A (0.1 μM)” value turned out to be 5%. Also, the “Percentage inhibition of ligand binding, Adrenergic α1B (0.1 μM)” value in assay [3] stood at 31%.

As to `Cc1ccc2c(c1)c1c(n2CC(C)(O)c2cccnc2)CC(C)N(C)C1` (single isomer, unassigned) [II-146a, 2-(pyridin-3-yl)-1-(2,3,8-trimethyl-3,4-dihydro-1H-pyrido[4,3-b]indol-5(2H)-yl)propan-2-ol], the “Percentage inhibition … (0.03 μM)” value in assay [1] came to 102%. In addition, the “Percentage inhibition of ligand binding, Adrenergic α2A (0.1 μM)” value in assay [2] is 47%. The inhibition at 0.1 µM in assay [3] (read-out: Percentage inhibition of ligand binding, Adrenergic α1B (0.1 μM), compound at 0.1 μM) stood at 23%.

Take `Cc1ccc2c(c1)c1c(n2CC(C)(O)c2cccnc2)CC(C)N(C)C1` (single isomer, unassigned) [II-146b, 2-(pyridin-3-yl)-1-(2,3,8-trimethyl-3,4-dihydro-1H-pyrido[4,3-b]indol-5(2H)-yl)propan-2-ol]: the “Percentage inhibition … (0.03 μM)” value in assay [1] is 43%. For the same compound, in assay [2], the “Percentage inhibition of ligand binding, Adrenergic α2A (0.1 μM)” value came to 5%. Besides, the “Percentage inhibition of ligand binding, Adrenergic α1B (0.1 μM)” value in assay [3] turned out to be 13%.

With `Cc1ccc2c(c1)c1c(n2CC(C)(O)c2cccnc2)CC(C)N(C)C1` (single isomer, unassigned) [II-146c, 2-(pyridin-3-yl)-1-(2,3,8-trimethyl-3,4-dihydro-1H-pyrido[4,3-b]indol-5(2H)-yl)propan-2-ol], the “Percentage inhibition … (0.03 μM)” value in assay [1] stood at 42%. Moreover, in assay [2], the “Percentage inhibition of ligand binding, Adrenergic α2A (0.1 μM)” value is recorded as 8%. Also, the “Percentage inhibition of ligand binding, Adrenergic α1B (0.1 μM)” value in assay [3] was determined as 17%.

With `Cc1ccc2c(c1)c1c(n2CC(C)(O)c2cccnc2)CC(C)N(C)C1` (single isomer, unassigned) [II-146d, 2-(pyridin-3-yl)-1-(2,3,8-trimethyl-3,4-dihydro-1H-pyrido[4,3-b]indol-5(2H)-yl)propan-2-ol], in assay [1], the “Percentage inhibition … (0.03 μM)” value worked out at 16%. For the same compound, the “Percentage inhibition of ligand binding, Adrenergic α2A (0.1 μM)” value in assay [2] came to 3%. Moreover, the “Percentage inhibition of ligand binding, Adrenergic α1B (0.1 μM)” value in assay [3] is on record as 13%.

As to `CC1Cc2c(c3cc(Cl)ccc3n2CC(C)(O)c2cccnc2)CN1C` (single isomer, unassigned) [II-147a, 1-(8-chloro-2,3-dimethyl-3,4-dihydro-1H-pyrido[4,3-b]indol-5(2H)-yl)-2-(pyridin-3-yl)propan-2-ol], the “Percentage inhibition … (0.03 μM)” value in assay [1] is 102%. Further, the “Percentage inhibition of ligand binding, Adrenergic α2A (0.1 μM)” value in assay [2] is given as 57%. The “Percentage inhibition of ligand binding, Adrenergic α1B (0.1 μM)” value in assay [3] is 32%.

For `CC1Cc2c(c3cc(Cl)ccc3n2CC(C)(O)c2cccnc2)CN1C` (single isomer, unassigned) [II-147b, 1-(8-chloro-2,3-dimethyl-3,4-dihydro-1H-pyrido[4,3-b]indol-5(2H)-yl)-2-(pyridin-3-yl)propan-2-ol], in assay [1], the “Percentage inhibition … (0.03 μM)” value amounted to 66%. The “Percentage inhibition of ligand binding, Adrenergic α2A (0.1 μM)” value in assay [2] stood at 15%. The “Percentage inhibition of ligand binding, Adrenergic α1B (0.1 μM)” value in assay [3] turned out to be 20%.

Consider `CC1Cc2c(c3cc(Cl)ccc3n2CC(C)(O)c2cccnc2)CN1C` (single isomer, unassigned) [II-147c, 1-(8-chloro-2,3-dimethyl-3,4-dihydro-1H-pyrido[4,3-b]indol-5(2H)-yl)-2-(pyridin-3-yl)propan-2-ol], for which the “Percentage inhibition … (0.03 μM)” value in assay [1] is on record as 38%. Also, the “Percentage inhibition of ligand binding, Adrenergic α2A (0.1 μM)” value in assay [2] is given as 3%. The “Percentage inhibition of ligand binding, Adrenergic α1B (0.1 μM)” value in assay [3] worked out at 7%.

As for `CC1Cc2c(c3cc(Cl)ccc3n2CC(C)(O)c2cccnc2)CN1C` (single isomer, unassigned) [II-147d, 1-(8-chloro-2,3-dimethyl-3,4-dihydro-1H-pyrido[4,3-b]indol-5(2H)-yl)-2-(pyridin-3-yl)propan-2-ol], the “Percentage inhibition … (0.03 μM)” value in assay [1] is given as 13%. The “Percentage inhibition of ligand binding, Adrenergic α2A (0.1 μM)” value in assay [2] was 4%. Moreover, in assay [3], the “Percentage inhibition of ligand binding, Adrenergic α1B (0.1 μM)” value was 10%.

On to `Cc1cnc2c(c1)c1c(n2CC(C)(O)c2ccc(F)cc2)CCN2CCCC12` (single isomer, unassigned) [II-149a, 2-(4-fluoro-phenyl)-1-(9-methyl-1,2,3,4,5,10c-hexahydro-3a,6,7-triazacyclopenta[c]fluoren-6-yl)-propan-2-ol], for which the “Percentage inhibition … (0.03 μM)” value in assay [1] was 104%. Besides, in assay [2], the “Percentage inhibition of ligand binding, Adrenergic α2A (0.1 μM)” value amounted to 53%. Moreover, in assay [3], the “Percentage inhibition of ligand binding, Adrenergic α1B (0.1 μM)” value is given as 90%.

For the compound `Cc1cnc2c(c1)c1c(n2CC(C)(O)c2ccc(F)cc2)CCN2CCCC12` (single isomer, unassigned) [II-149b, 2-(4-fluoro-phenyl)-1-(9-methyl-1,2,3,4,5,10c-hexahydro-3a,6,7-triazacyclopenta[c]fluoren-6-yl)-propan-2-ol], the “Percentage inhibition … (0.03 μM)” value in assay [1] came to 96%. Also, the “Percentage inhibition of ligand binding, Adrenergic α2A (0.1 μM)” value in assay [2] was 27%. For the same compound, the “Percentage inhibition of ligand binding, Adrenergic α1B (0.1 μM)” value in assay [3] was 59%.

Consider `Cc1cnc2c(c1)c1c(n2CC(C)(O)c2ccc(F)cc2)CCN2CCCC12` (single isomer, unassigned) [II-149c, 2-(4-fluoro-phenyl)-1-(9-methyl-1,2,3,4,5,10c-hexahydro-3a,6,7-triazacyclopenta[c]fluoren-6-yl)-propan-2-ol], for which, in assay [1], the “Percentage inhibition … (0.03 μM)” value was determined as 41%. In assay [2], the “Percentage inhibition of ligand binding, Adrenergic α2A (0.1 μM)” value stood at 5%. Also, the “Percentage inhibition of ligand binding, Adrenergic α1B (0.1 μM)” value in assay [3] was 49%.

In the case of `Cc1cnc2c(c1)c1c(n2CC(C)(O)c2ccc(F)cc2)CCN2CCCC12` (single isomer, unassigned) [II-149d, 2-(4-fluoro-phenyl)-1-(9-methyl-1,2,3,4,5,10c-hexahydro-3a,6,7-triazacyclopenta[c]fluoren-6-yl)-propan-2-ol], in assay [1], the “Percentage inhibition … (0.03 μM)” value stood at 44%. The “Percentage inhibition of ligand binding, Adrenergic α2A (0.1 μM)” value in assay [2] was 7%. The “Percentage inhibition of ligand binding, Adrenergic α1B (0.1 μM)” value in assay [3] is 41%.
